Measurements taken from US11278624B2, “Formulations” (Arecor Limited, priority 2016, dated 2022).

Legend:
[1] = 25° C.; as quoted by NIST reference database 46; cited from earlier work
[2] = Size exclusion chromatography main peak of insulin lispro formulations after storage; assay type: physicochemical; details: insulin lispro 100 U/ml with 0.4 mM EDTA; 30° C. for 4 weeks
[3] = Visual assessment of insulin lispro (100 U/ml) formulations with 0.4 mM EDTA and different surfactants after storage; assay type: physicochemical; details: insulin lispro 100 U/ml with 0.4 mM EDTA; for effect of surfactant on precipitation: 30° C. for 4 weeks
Protocol: (§1) European Pharmacepoeia Monograph (Particulate Contamination: Visible Particles).
(§2) The presence of any particles is recorded.
The effect of different surfactants was tested on stability of insulin lispro (100 U/ml) in the presence of 0.4 mM EDTA. The visual assessment method described in General Methods was used.

[4] = Visual Assessment Scoring Method B, insulin aspart (100 U/ml) with trisodium citrate, L-histidine or pyrophosphate, storage at 30° C.; assay type: physicochemical
Protocol: as §1, §2
(§3) Visual Assessment Scoring Method B
(§4) Visual score 1: Clear solution, virtually free of particles
(§5) Visual score 2: ˜5 very small particles
(§6) Visual score 3: ˜10-20 very small particles
(§7) Visual score 4: 20-50 particles, including larger particles
(§8) Visual score 5: >50 particles, including larger particles

[5] = Visual Assessment Scoring Method B, insulin lispro (100 U/ml) with citric acid, storage at indicated temperatures; details: insulin lispro 100 U/ml with citric acid 22 mM
Description: The apparatus required consists of a viewing station comprising: • a matt black panel of appropriate size held in a vertical position • a non-glare white panel of appropriate size held in a vertical position next to the black panel • an adjustable lampholder fitted with a suitable, shaded, white-light source and with a suitable light diffuser (a viewing illuminator containing two 13 W fluorescent tubes, each 525 mm in length, is suitable).
Any adherent labels are removed from the container and the outside washed and dried. The container is gently swirled or inverted, ensuring that air bubbles are not introduced, and observed for about 5 s in front of the white panel. The procedure is repeated in front of the black panel. The presence of any particles is recorded.
Whilst the particles in samples with visual scores 4 and 5 are clearly detectable on casual visual assessment under normal light, samples with visual score 1-3 generally appear as clear solutions on the same assessment. Samples with visual scores 1-3 are considered to be “Pass”; samples with visual score 4-5 are considered to be “Fail”.
Stability of insulin lispro (100 U/ml) was investigated in formulations comprising citric acid (22 mM), both in the presence and in the absence of polysorbate 80.

[6] = Visual Assessment Scoring Method B, insulin aspart (1000 U/ml) with trisodium citrate, L-histidine or pyrophosphate; assay type: physicochemical
Protocol: as §1, §2, §3, §4, §5, §6, §7, §8

[7] = Visual Assessment Scoring Method A, insulin aspart (100 U/ml) with 22 mM sodium citrate, storage at 30° C.; assay type: physicochemical
Protocol: as §1, §2
Visual Assessment Scoring Method A
Visual score 1: clear solution free of particles
Visual score 2: slight particle formation
Visual score 3: more significant precipitation

[8] = Visual Assessment Scoring Method B, insulin aspart (1000 U/ml) with different concentrations of citric acid and polysorbate 80; assay type: physicochemical; details: insulin aspart 1000 U/ml with citric acid 44-88 mM
Protocol: as §1, §2, §3, §4, §5, §6, §7, §8
The stability of insulin aspart (1000 U/ml) was investigated in the presence of different concentrations of citric acid and different concentrations of polysorbate 80. […] Three concentrations of citric acid (44, 66 and 88 mM) and four concentrations of each non-ionic surfactant were tested as well as corresponding surfactant-free compositions.

O=C(O)CN(CCN(CC(=O)O)CC(=O)O)CC(=O)O [EDTA, ethylenediaminetetraacetate]
log K metal binding stability constant with respect to zinc binding [1]: 14.5

O=C(O)CN(CCOCCOCCN(CC(=O)O)CC(=O)O)CC(=O)O [EGTA, ethyleneglycoltetraacetate]
log K metal binding stability constant with respect to zinc binding [1]: 12.6

CCCCCCCCCCCCC[N+](C)(C)Cc1ccccc1 [benzalkonium chloride]
effect of surfactant on reduction in size of the main peak on SEC and RP-HPLC chromatograms [2]: did not prevent | effect of surfactant on precipitation [3]: prevented precipitation

CC(C)(C)CC(C)(C)c1ccc(OCCOCC[N+](C)(C)Cc2ccccc2)cc1 [benzethonium chloride]
effect of surfactant on reduction in size of the main peak on SEC and RP-HPLC chromatograms [2]: did not prevent | effect of surfactant on precipitation [3]: prevented precipitation

O=C(O)CC(O)(CC(=O)O)C(=O)O [citrate]
log K metal binding stability constant with respect to zinc binding [1]: 4.93

CCCCCCCCCCCCO[C@@H]1O[C@H](CO)[C@@H](O[C@H]2O[C@H](CO)[C@@H](O)[C@H](O)[C@H]2O)[C@H](O)[C@H]1O [dodecyl maltoside]
effect of surfactant on reduction in size of the main peak on SEC and RP-HPLC chromatograms [2]: did not prevent | effect of surfactant on precipitation [3]: prevented precipitation

N[C@@H](Cc1c[nH]cn1)C(=O)O [histidine]
log K metal binding stability constant with respect to zinc binding [1]: 6.51

O=P(O)(O)OP(=O)(O)O [pyrophosphate]
log K metal binding stability constant with respect to zinc binding [1]: 8.71

poloxamer 188
effect of surfactant on particle formation rate [4]: worse than that of polysorbate 80 | effect of surfactant on destabilising effect of citric acid [5]: notably weaker than that of polysorbate 80

polyoxyethylene (20) sorbitan monolaurate [Polysorbate 20]
effect of surfactant on particle formation rate [4]: not effective at all | effect of surfactant on destabilising effect of citric acid [5]: notably weaker than that of polysorbate 80

polyoxyethylene (20) sorbitan monooleate [polysorbate 80]
effect of surfactant on rate of particle formation [6]: stabilising effect | stability after storage at 30° C. for 4 weeks ([3]; visual, SEC and RP-HPLC taken together): almost comparable with the EDTA-free control | effect of surfactant on particle formation rate [4]: stabilising effect | effect of surfactant on rate of particle formation [7]: considerable reduction in the rate of particle formation | effect of surfactant on rate of particle formation [8]: reduction in the rate of particle formation | effect of surfactant on destabilising effect of citric acid [5]: appeared to mitigate the destabilising effect
